Measurements: US6989371B1, “Bombesin analogs for treatment of cancer” (Dabur Research Foundation, priority 1996, dated 2006)

Columns and labels:
A549 (lung) = assay: MTT cytotoxicity assay, 72 hours (Example 13); assay type: cell-based, human
Experimental: (§1) The cytotoxic activity of other synthesized bombesin analogs was tested on eight human tumor cell lines namely HT-29, SW620, PTC (all colon), PA-1 (ovary), A549 (lung), HBL100(breast), MOLT-4 (leukemia) and DU145 (prostate). The tumor cells were collected at exponential growth phase and resuspended in medium (1.5×10^6) cells/ml in RPMI 1640 containing 10% FBS). 150 μl of medium was added to the wells of a 96-well tissue culture plate (Nunc, Denmark) followed by 30 μl of cell suspension. The plate was left in incubator (37° C., 5% CO2 overnight. 20 μl of the peptide (10^−7×10^×10M concentration) was added to marked wells of the 96-well plate. Each concentration was plated in cells served as blanks. A total volume of 200 μl was ensured in each well and plate was left in incubator (37° C., 5% CO2). After 72 hours of incubation an MTT assay was performed and percentage cytotoxicity was calculated with respect to control cells. Following tables show the cytotoxicity achieved on various cell lines at different concentrations.

DU145 (prostate) = assay: MTT cytotoxicity assay, 72 hours (Example 13); assay type: cell-based, human
Experimental: as §1

HBL100 (breast) = assay: MTT cytotoxicity assay, 72 hours (Example 13); assay type: cell-based, human; settings: HBL
Experimental: as §1

HT-29 (colon) = assay: MTT cytotoxicity assay, 72 hours (Example 13); assay type: cell-based, human
Experimental: as §1

MOLT-4 (leukemia) = assay: MTT cytotoxicity assay, 72 hours (Example 13); assay type: cell-based, human
Experimental: as §1

PA-1 (ovary) = assay: MTT cytotoxicity assay, 72 hours (Example 13); assay type: cell-based, human
Experimental: as §1

PTC (colon) = assay: MTT cytotoxicity assay, 72 hours (Example 13); assay type: cell-based, human
Experimental: as §1

SW620 (colon) = assay: MTT cytotoxicity assay, 72 hours (Example 13); assay type: cell-based, human
Experimental: as §1

intact SCLC cells = settings: 37° C., RPMI medium, 0–1080 minutes; cited from earlier work
SCLC xenograft = settings: in vivo; cited from earlier work

CCCC(CCC)(NC(=O)[C@@H](NC(=O)[C@H](C)NC(=O)[C@@H](Cc1c[nH]c2ccccc12)NC(=O)[C@H](CCC(N)=O)NC(=O)[C@H](N)Cc1ccccc1)C(C)C)C(=O)N[C@@H](Cc1c[nH]cn1)C(=O)N[C@@H](CC(C)C)C(N)=O [SEQ ID: 8, D-Phe-Gln-D-Trp-Ala-Val-Dpg-His-Leu-NH2]
Percent Cytotoxicity (A549 (lung); A549, 1 nM): 19.7 ± 3.1%
Percent Cytotoxicity (A549 (lung); A549, 10 nM): 20.7 ± 2.2%
Percent Cytotoxicity (A549 (lung); A549, 100 nM): 21.7 ± 3.3%
Percent Cytotoxicity (A549 (lung); A549, 100 PM): 17.0 ± 2.7%
Percent Cytotoxicity (DU145 (prostate); DU145, 1 nM): 21.4 ± 6.2%
Percent Cytotoxicity (DU145 (prostate); DU145, 10 nM): 22.5 ± 2.2%
Percent Cytotoxicity (DU145 (prostate); DU145, 100 nM): 19.1 ± 2.1%
Percent Cytotoxicity (DU145 (prostate); DU145, 100 PM): 28.1 ± 3.5%
Percent Cytotoxicity (HBL100 (breast); 1 nM): 12.2 ± 1.9%
Percent Cytotoxicity (HBL100 (breast); 10 nM): 14.4 ± 2.1%
Percent Cytotoxicity (HBL100 (breast); 100 nM): 11.9 ± 2.1%
Percent Cytotoxicity (HBL100 (breast); 100 PM): 12.1 ± 1.9%
Percent Cytotoxicity (HT-29 (colon); HT29, 1 nM): 34.7 ± 3.3%
Percent Cytotoxicity (HT-29 (colon); HT29, 10 nM): 18.9 ± 4.2%
Percent Cytotoxicity (HT-29 (colon); HT29, 100 nM): 34.8 ± 4.2%
Percent Cytotoxicity (HT-29 (colon); HT29, 100 PM): 21.4 ± 3.1%
Percent Cytotoxicity (MOLT-4 (leukemia); MOLT4, 1 nM): 9.3 ± 0.2%
Percent Cytotoxicity (MOLT-4 (leukemia); MOLT4, 10 nM): 12.8 ± 3.3%
Percent Cytotoxicity (MOLT-4 (leukemia); MOLT4, 100 nM): 2.6 ± 0.1%
Percent Cytotoxicity (MOLT-4 (leukemia); MOLT4, 100 PM): 16.6 ± 3.1%
Percent Cytotoxicity (PA-1 (ovary); PA-1, 1 nM): 23.8 ± 4.2%
Percent Cytotoxicity (PA-1 (ovary); PA-1, 10 nM): 20.4 ± 3.0%
Percent Cytotoxicity (PA-1 (ovary); PA-1, 100 nM): 10.4 ± 3.7%
Percent Cytotoxicity (PA-1 (ovary); PA-1, 100 PM): 23.3 ± 5.5%
Percent Cytotoxicity (PTC (colon); 1 nM): 12.5 ± 1.7%
Percent Cytotoxicity (PTC (colon); 10 nM): 5.4 ± 1.7%
Percent Cytotoxicity (PTC (colon); 100 nM): 8.7 ± 2.1%
Percent Cytotoxicity (PTC (colon); 100 PM): 12.3 ± 1.9%
Percent Cytotoxicity (SW620 (colon); SW620, 1 nM): 20.6 ± 3.9%
Percent Cytotoxicity (SW620 (colon); SW620, 10 nM): 33.0 ± 3.8%
Percent Cytotoxicity (SW620 (colon); SW620, 100 nM): 29.4 ± 2.9%
Percent Cytotoxicity (SW620 (colon); SW620, 100 PM): 20.6 ± 3.9%

[Psi 13, 14] Bombesin
TI/2 (stability to metabolic enzymes) (intact SCLC cells): 646 min
SCLC xenograft formation (SCLC xenograft): inhibited SCLC xenograft formation in vivo in a dose-dependent manner
